Test results as given in patent publication US20220117958A1, “COMPOSITIONS AND METHODS FOR INHIBITING ACSS2” (THE TRUSTEES OF THE UNIVERSITY OF PENNSYLVANIA, priority 2018, published 2022).
Values after ≈ are worked out from the molar mass of the structure shown. Values joined by “and” are separate entries in the source; they are usually repeats but may differ in a detail not shown here. Identical values can stand only once. Like-named read-outs stand apart in the source and are kept apart here. Marks after values point to notes of the source that are not given here.

Columns and labels:
[1] = Turbidity-based aqueous solubility; type: physicochemical; settings: aqueous solution (composition not given), kinetic from dmso stock, read-out: highest soluble concentration
Excerpt: (§1) Table 20 provides results of in vitro and in vivo pharmacokinetics performed for each of the represented compounds.

[2] = Protein binding via Rapid Equilibrium Dialysis - plasma; type: in vitro ADME; settings: Rat (SD) plasma, 2 μM
Excerpt: as §1

[3] = Microsomal stability assay (half-life), human; type: in vitro ADME; settings: Human microsomes, read-out: Microsomal stability T1/2
Excerpt: as §1

[4] = Microsomal stability assay (half-life), mouse; type: in vitro ADME; settings: Mouse (CD1) microsomes, read-out: Microsomal stability T1/2
Excerpt: as §1

[5] = Microsomal stability assay (half-life), rat; type: in vitro ADME; settings: Rat (SD) microsomes, read-out: Microsomal stability T1/2
Excerpt: as §1

[6] = In vivo PK, oral gavage, plasma; parameters: species or system Rat (SD); settings: PO 5 mg/kg; for Plasma concentration, mean: Rat (SD), BQL = below quantitation limit (1.00 ng/mL); for Plasma concentration, individual animal: Rat, BQL limit 1.00 ng/mL
Excerpt: as §1
(§2) Tables 4 and 5 depict the summary of rat plasma sample concentrations after administration of ADG I-204. FIG. 6 provides a summary of rat plasma and brain concentrations.

[7] = In vivo PK, IV dose, plasma; parameters: species or system Rat (SD); settings: for Plasma concentration, mean / Plasma concentration, individual animal: IV 1 mg/kg, listed as ADG I-204, 1 mg/kg
Excerpt: as §1, §2

[8] = In vivo PK, IV dose, Terminal - brain (brain availability); parameters: species or system Rat (SD); settings: for Brain concentration, mean / Brain concentration, individual animal: IV 1 mg/kg; for Brain concentration, individual animal: Rat
Protocol: Table 3 and FIG. 5 depict the brain availability of ADG I-204, ADG I-205, ADG I-206, and ADG I-207 after IV administration of 1 mg/kg dose.

H3K9ac = assay: Western blot, differentiated CAD cell lysates, H3K9ac levels; type: cell-based; settings: differentiated CAD cells, DMSO = 100.00%
Excerpt: as §1

Structure (SMILES): CCCCCNC(=O)Nc1ccc2nc(-c3cccs3)c(-c3cccs3)nc2c1 [ADG-204]
- solubility [1]: 2 µM (≈ 0.845 µg/mL)
- Protein binding, plasma: % Protein free [2]: 0.1994 % Protein free
- half-life at 2 μM [3]: 1.16 h
- half-life at 2 μM [4]: 5.02 h
- half-life at 2 μM [5]: 3.92 h
- Plasma concentration, mean ([6]; 0.25 hr): BQL
- Plasma concentration, mean ([6]; 0.5 hr): BQL
- Plasma concentration, mean ([6]; 1 hr): BQL
- Plasma concentration, mean ([6]; 4 hr): BQL
- Plasma concentration, mean ([6]; 8 hr): BQL
- Plasma concentration, mean ([6]; 24 hr): BQL
- Plasma concentration, individual animal ([6]; 0.250 hr): BQL
- Plasma concentration, individual animal ([6]; 0.500 hr): BQL
- Plasma concentration, individual animal ([6]; 1.00 hr): BQL
- Plasma concentration, individual animal ([6]; 4.00 hr): BQL
- Plasma concentration, individual animal ([6]; 8.00 hr): BQL
- Plasma concentration, individual animal ([6]; 24.0 hr): BQL
- Plasma concentration, mean ([7]; Rat (SD), 4 hr, terminal): 4 ng/mL
- Plasma concentration, mean ([7]; Rat (SD), 8 hr, terminal): 4 ng/mL
- Plasma concentration, mean ([7]; Rat (SD), 24 hr, terminal, BQL limit 1.00 ng/mL (ADG I-205: 2.00 ng/mL)): 2 ng/mL
- Plasma concentration, individual animal ([7]; Rat, 0.0830 hr, terminal, third animal received only 70% of the test article): 2340 ng/mL and 1170*** ng/mL
- Plasma concentration, individual animal ([7]; Rat, 0.500 hr, not terminal (animals 4, 5 and 6)): 4190** ng/mL and 357 ng/mL and 634 ng/mL
- Plasma concentration, individual animal ([7]; Rat, 1.00 hr, terminal): 278 ng/mL and 103 ng/mL and 279 ng/mL
- Plasma concentration, individual animal ([7]; Rat, 4.00 hr, terminal, BQL limit 1.00 ng/mL (ADG I-205: 2.00 ng/mL)): 4.35 ng/mL
- Plasma concentration, individual animal ([7]; Rat, 8.00 hr, terminal, BQL limit 1.00 ng/mL (ADG I-205: 2.00 ng/mL)): 2.97 ng/mL and 5.93 ng/mL
- Plasma concentration, individual animal ([7]; Rat, 24.0 hr, terminal, BQL limit 1.00 ng/mL (ADG I-205: 2.00 ng/mL)): 1.09 ng/mL and BQL
- concentration at 0.083 h ([7]; SD, rat, plasma, iv, 1 mg/kg, Rat (SD), 0.083 hr, terminal, read-out: Plasma concentration, mean): 1910 ng/mL
- concentration at 0.5 h ([7]; SD, rat, plasma, iv, 1 mg/kg, Rat (SD), 0.500 hr, not a terminal time point (animals 4, 5 and 6)): 1730 ng/mL
- concentration at 1 h ([7]; SD, rat, plasma, iv, 1 mg/kg, Rat (SD), 1 hr, terminal, read-out: Plasma concentration, mean): 220 ng/mL
- concentration at 4 h ([7]; SD, rat, plasma, iv, 1 mg/kg, Rat (SD), 4 hr, terminal, read-out: Plasma concentration, mean): 4.49 ng/mL
- concentration at 8 h ([7]; SD, rat, plasma, iv, 1 mg/kg, Rat (SD), 8 hr, terminal, read-out: Plasma concentration, mean): 4.27 ng/mL
- concentration at 24 h ([7]; SD, rat, plasma, iv, 1 mg/kg, Rat (SD), 24 hr, terminal, BQL limit 1.00 ng/mL (ADG I-205: 2.00 ng/mL), read-out: Plasma concentration, mean): 1.52 ng/mL
- concentration at 0.083 h ([7]; SD, rat, plasma, iv, 1 mg/kg, Rat, 0.0830 hr, terminal, third animal received only 70% of the test article, read-out: Plasma concentration, individual animal): 2220 ng/mL
- concentration at 4 h ([7]; SD, rat, plasma, iv, 1 mg/kg, Rat, 4.00 hr, terminal, BQL limit 1.00 ng/mL (ADG I-205: 2.00 ng/mL), read-out: Plasma concentration, individual animal): 8.63 ng/mL
- concentration at 8 h ([7]; SD, rat, plasma, iv, 1 mg/kg, Rat, 8.00 hr, terminal, BQL limit 1.00 ng/mL (ADG I-205: 2.00 ng/mL), read-out: Plasma concentration, individual animal): 3.92 ng/mL
- concentration at 24 h ([7]; SD, rat, plasma, iv, 1 mg/kg, Rat, 24.0 hr, terminal, BQL limit 1.00 ng/mL (ADG I-205: 2.00 ng/mL), read-out: Plasma concentration, individual animal): 1.95 ng/mL
- Brain concentration, mean ([8]; Rat (SD), 4 hr, BQL limit 10.0 ng/g (204, 206), 20.0 ng/g (205, 207)): BQL
- Brain concentration, mean ([8]; Rat (SD), 8 hr, BQL limit 10.0 ng/g (204, 206), 20.0 ng/g (205, 207)): BQL
- Brain concentration, mean ([8]; Rat (SD), 24 hr, BQL limit 10.0 ng/g (204, 206), 20.0 ng/g (205, 207)): BQL
- Brain concentration, individual animal ([8]; 0.0830 hr, third animal received only 70% of the test article, listed as ADG I-204, 1 mg/kg): 637 ng/g and 583 ng/g and 242*** ng/g
- Brain concentration, individual animal ([8]; 1.00 hr, listed as ADG I-204, 1 mg/kg): 119 ng/g and 60.3 ng/g and 149 ng/g
- Brain concentration, individual animal ([8]; 4.00 hr, BQL limit 10.0 ng/g (204, 206), 20.0 ng/g (205, 207)): BQL
- Brain concentration, individual animal ([8]; 8.00 hr, BQL limit 10.0 ng/g (204, 206), 20.0 ng/g (205, 207)): BQL
- Brain concentration, individual animal ([8]; 24.0 hr, BQL limit 10.0 ng/g (204, 206), 20.0 ng/g (205, 207)): BQL
- concentration at 0.083 h ([8]; SD, rat, brain, iv, 1 mg/kg, Rat (SD), 0.083 hr): 487 ng/g
- concentration at 1 h ([8]; SD, rat, brain, iv, 1 mg/kg, Rat (SD), 1 hr, read-out: Brain concentration, mean): 109 ng/g
- H3K9ac levels normalized to H3 and DMSO control (H3K9ac; 1 uM): 22.30%
- H3K9ac levels normalized to H3 and DMSO control (H3K9ac; 5 uM): 13.48%
- H3K9ac levels normalized to H3 and DMSO control (H3K9ac; 10 uM): 8.32%
- H3K9ac levels normalized to H3 and DMSO control (H3K9ac; 20 uM): 17.03%
- H3K9ac levels normalized to H3 and DMSO control (H3K9ac; 50 uM): 9.64%
- H3K9ac levels normalized to H3 and DMSO control (H3K9ac; 100 uM): 24.00%
